Active and inactive are the calls of the source.

Consider two molecules from ChEMBL document CHEMBL1201862, “PubChem BioAssay data set” (2004).

Assay [1] relates to Streptococcus sp. 'group A'. Description: Streptococcus pyogenes SK(-)GAS viability under kanamycin – luminescence, BacTiterGlo, confirmation, counter-screen for streptokinase expression inhibitor project, dose response (AID 1900). It counts as functional, organism-based. For orientation: The purpose of a counterscreen is to sort out artefacts and off-target activity.
In another assay the test system is INS1. Description: INS-1E survival protection against cytokine death – cell-based, luminescence, retest, dose response (AID 449756).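 Further: cell death triggered by IL-1 beta plus TNF-alpha plus IFN-gamma mixture; protective hits raise ATP signal compared with cytokine alone wells.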 It counts as functional. To be noted: Rattus norvegicus.
A further assay concerns Streptococcus. As to the kind of experiment: GAS UMAA2166 growth inhibition – luminescence, BacTiterGlo, counter-screen for streptokinase expression inhibitor project, dose response (AID 1915).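 Further: potency for reduction of bacterial viability or growth.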 It counts as functional, organism-based.
Another assay addresses T1, Streptokinase A (Streptococcus pyogenes serotype M1, UniProt P10520).
T1 sequence (P10520 whole entry): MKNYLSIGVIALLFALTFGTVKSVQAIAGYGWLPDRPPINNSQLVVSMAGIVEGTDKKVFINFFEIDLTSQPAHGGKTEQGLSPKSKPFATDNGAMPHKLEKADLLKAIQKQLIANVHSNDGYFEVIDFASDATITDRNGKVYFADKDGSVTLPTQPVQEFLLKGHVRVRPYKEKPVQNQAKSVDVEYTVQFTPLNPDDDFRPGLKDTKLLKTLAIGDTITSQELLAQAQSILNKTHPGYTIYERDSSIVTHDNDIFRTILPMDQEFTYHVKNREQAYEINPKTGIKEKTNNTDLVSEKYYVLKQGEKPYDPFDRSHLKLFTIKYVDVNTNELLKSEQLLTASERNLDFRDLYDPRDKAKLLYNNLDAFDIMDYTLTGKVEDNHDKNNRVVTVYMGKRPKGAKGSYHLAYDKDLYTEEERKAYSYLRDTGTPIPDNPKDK
Description: viability-normalized secreted streptokinase activity reduction – plasminogen activation absorbance, OD405, dose response (AID 1914).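 Further: secreted streptokinase activity via plasminogen activation per viability signal from cell pellet.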 It is filed as functional, Streptococcus pyogenes M1 GAS.

Assay [2] deals with Latent membrane protein 1 (Human herpesvirus 4 (strain B95-8), UniProt P03230). Description: LMP1 TES1 pathway selectivity over dsRED control – imaging, HEK293T, dual-color eGFP/dsRED, cherry-picks, selectivity assay for LMP1 NF-kB inhibitor project, dose response (AID 588398). It counts as functional, cell-based.
Chain of Latent membrane protein 1 (P03230 whole entry): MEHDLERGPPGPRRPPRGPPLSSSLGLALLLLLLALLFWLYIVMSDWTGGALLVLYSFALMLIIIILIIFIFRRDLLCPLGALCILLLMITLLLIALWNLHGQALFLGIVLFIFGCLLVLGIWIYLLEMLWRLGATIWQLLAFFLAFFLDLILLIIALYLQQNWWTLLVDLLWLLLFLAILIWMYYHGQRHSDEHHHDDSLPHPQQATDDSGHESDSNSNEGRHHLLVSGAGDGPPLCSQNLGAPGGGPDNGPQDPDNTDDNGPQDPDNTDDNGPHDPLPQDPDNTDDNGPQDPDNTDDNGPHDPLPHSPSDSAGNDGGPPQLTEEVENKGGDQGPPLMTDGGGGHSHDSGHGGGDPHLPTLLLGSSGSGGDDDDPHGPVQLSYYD
The target of assay [3] is Eukaryotic translation initiation factor 4H (Homo sapiens, UniProt Q15056). Description: eIF4H binding inhibition – biochemical, uHTS, fluorescence polarization, translation initiation inhibitor project, primary screen (AID 2012). (In general: Polarisation of emitted light reports the rotation of a fluorescent probe.)
The target in assay [4] is T2, Intestinal-type alkaline phosphatase (Mus musculus, UniProt P24822). Description: PubChem AID 488785. It is filed as functional.
T2 sequence (P24822 whole entry): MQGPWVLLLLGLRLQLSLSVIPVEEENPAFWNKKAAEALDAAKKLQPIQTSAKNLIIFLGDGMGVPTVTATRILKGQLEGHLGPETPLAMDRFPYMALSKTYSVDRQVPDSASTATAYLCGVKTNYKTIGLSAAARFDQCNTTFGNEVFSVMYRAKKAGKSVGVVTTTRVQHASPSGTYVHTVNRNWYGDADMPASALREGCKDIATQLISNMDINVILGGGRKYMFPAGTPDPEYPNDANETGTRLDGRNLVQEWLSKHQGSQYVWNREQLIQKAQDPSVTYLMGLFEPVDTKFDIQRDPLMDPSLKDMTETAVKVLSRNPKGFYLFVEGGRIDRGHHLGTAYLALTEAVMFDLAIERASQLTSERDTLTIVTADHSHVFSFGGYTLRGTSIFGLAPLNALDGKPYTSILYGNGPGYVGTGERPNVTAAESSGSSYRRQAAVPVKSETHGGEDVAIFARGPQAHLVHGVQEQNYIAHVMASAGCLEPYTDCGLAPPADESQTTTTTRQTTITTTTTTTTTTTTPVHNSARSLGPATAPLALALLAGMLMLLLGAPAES
In assay [5] the target is T3, Alkaline phosphatase, tissue-nonspecific isozyme (Homo sapiens, UniProt P05186).
T3 sequence (P05186 whole entry): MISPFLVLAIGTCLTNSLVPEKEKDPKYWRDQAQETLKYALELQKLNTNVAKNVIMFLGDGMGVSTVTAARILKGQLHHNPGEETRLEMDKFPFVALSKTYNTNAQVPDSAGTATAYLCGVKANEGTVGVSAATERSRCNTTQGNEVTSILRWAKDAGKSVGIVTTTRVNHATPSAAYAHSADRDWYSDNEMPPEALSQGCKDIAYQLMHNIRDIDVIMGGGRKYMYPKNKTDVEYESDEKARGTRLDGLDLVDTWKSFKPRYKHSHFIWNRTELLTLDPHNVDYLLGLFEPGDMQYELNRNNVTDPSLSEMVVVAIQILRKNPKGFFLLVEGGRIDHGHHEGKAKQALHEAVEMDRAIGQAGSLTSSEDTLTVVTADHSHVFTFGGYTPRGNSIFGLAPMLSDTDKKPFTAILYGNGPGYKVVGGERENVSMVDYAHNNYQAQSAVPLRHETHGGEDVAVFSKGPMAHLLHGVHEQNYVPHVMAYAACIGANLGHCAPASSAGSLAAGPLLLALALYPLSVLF
Description: TNAP enzyme inhibition by screening hits, dose response, selectivity assay for mouse IAP inhibitor project, biochemical, human TNAP, uHTS hits (AID 488906). It counts as functional.

Assay [6] deals with Polyadenylate-binding protein 1 (Homo sapiens, UniProt P11940). Description: blockers of PABP interaction with poly(A) – biochemical, fluorescence polarization, […] (AID 2014).
Chain of Polyadenylate-binding protein 1 (P11940 whole entry): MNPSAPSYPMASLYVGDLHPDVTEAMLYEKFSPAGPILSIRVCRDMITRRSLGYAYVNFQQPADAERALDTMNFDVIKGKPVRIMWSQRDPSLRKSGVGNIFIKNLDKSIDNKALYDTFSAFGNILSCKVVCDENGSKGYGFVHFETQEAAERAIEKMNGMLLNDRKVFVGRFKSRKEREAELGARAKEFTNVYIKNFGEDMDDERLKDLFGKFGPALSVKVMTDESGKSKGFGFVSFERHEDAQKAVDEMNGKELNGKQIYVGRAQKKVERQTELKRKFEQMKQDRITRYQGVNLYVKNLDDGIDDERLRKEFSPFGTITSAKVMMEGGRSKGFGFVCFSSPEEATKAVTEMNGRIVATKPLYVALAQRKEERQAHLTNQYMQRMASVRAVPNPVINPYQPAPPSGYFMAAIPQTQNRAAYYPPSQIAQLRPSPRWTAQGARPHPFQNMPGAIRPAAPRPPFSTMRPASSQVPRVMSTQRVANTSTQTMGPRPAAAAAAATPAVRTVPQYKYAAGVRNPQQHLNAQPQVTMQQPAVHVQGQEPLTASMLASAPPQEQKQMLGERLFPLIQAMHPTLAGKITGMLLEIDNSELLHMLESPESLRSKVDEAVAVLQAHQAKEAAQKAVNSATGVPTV
Assay [7] deals with T3, Alkaline phosphatase, tissue-nonspecific isozyme. As to the kind of experiment: activation of tissue-nonspecific alkaline phosphatase – biochemical, TNAP isozyme, human IAP uHTS hits, selectivity assay for human IAP activator project, dose response (AID 488886).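 Further: potency of compounds raising TNAP activity as a selectivity check on IAP activators.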 It counts as functional.
Assay [8] has as its target T4, Intestinal-type alkaline phosphatase (Homo sapiens, UniProt P09923). Description: human intestinal alkaline phosphatase activators, dose response, biochemical, luminescence, uHTS hits (AID 463120). It is filed as functional.
Assay [9] concerns the target T2, Intestinal-type alkaline phosphatase. As to the kind of experiment: PubChem AID 488874. It counts as functional.
Assay [10] addresses T4, Intestinal-type alkaline phosphatase. Description: inhibition of human intestinal alkaline phosphatase – biochemical, dose response (AID 488876). It counts as functional.
Assay [11] shares this target. As to the kind of experiment: activation of human intestinal alkaline phosphatase – biochemical, luminescent, uHTS hits, set 2, dose response (AID 488817).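 Further: potency of activators that raise enzyme activity.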 It is filed as functional.

T4 sequence (P09923 whole entry): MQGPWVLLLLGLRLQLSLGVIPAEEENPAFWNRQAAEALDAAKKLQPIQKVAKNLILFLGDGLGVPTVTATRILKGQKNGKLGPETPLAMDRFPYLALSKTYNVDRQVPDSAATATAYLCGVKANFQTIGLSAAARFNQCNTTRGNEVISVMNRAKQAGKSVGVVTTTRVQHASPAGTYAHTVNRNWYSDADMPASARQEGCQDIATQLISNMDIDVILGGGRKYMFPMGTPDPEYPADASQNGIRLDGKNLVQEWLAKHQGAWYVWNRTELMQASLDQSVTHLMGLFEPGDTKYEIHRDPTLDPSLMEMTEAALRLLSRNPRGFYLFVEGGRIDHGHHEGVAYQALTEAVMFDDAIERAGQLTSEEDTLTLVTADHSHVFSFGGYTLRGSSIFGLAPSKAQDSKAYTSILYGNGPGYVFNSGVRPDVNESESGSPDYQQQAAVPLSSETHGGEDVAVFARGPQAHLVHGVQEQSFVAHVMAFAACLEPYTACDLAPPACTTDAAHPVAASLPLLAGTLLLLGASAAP

By EC50 is commonly meant the concentration giving half of the maximal effect. The AC50 is the midpoint of the concentration-response curve, whichever way the signal moves. `Cc1onc(-c2ccccc2)c1C(=O)NC(=S)NNC(=O)c1ccc(O)cc1O`: the figures for the half-maximal effective concentration (EC50) (in assay [1]; in the assay with Streptococcus; on Streptokinase A) were 6.86 µM (active), 25.3 µM (active) and > 150 µM (not active), respectively. Moreover, the AC50 in the assay on INS1 was 3.95 µM (active); in [2], 1.15 µM (active).

By IC50 is commonly meant the concentration that gives 50% inhibition. For the molecule `O=C(N/N=C/c1ccc(O)cc1O)C(=O)N/N=C/c1ccc(O)cc1O`, the IC50 in [3] is 2.31 µM (active); in assay [4], 604 nM (active); in assay [5] it was 38.1 µM (active); in [6] it was > 100 µM (inactive); in [9] it was 5.04 µM (active); in assay [10] it was 51.3 µM (active). Further, the EC50 in assay [7] is > 100 µM (inactive); in [8], 7.62 µM (active); in assay [11], 4.56 µM (active).
